According to patent publication US6517836B1, “Nitrophenylaziridine compounds and their use as prodrugs” (Auckland Uniservices Limited, priority 1998, dated 2003):
Where two headings read alike, the source gives them in different places.

Key:
[1] = system: Chinese hamster fibroblast NR− line (T78-1), V79/4 transfected with an empty shuttle vector; assay: Cytotoxicity, 18 h drug exposure, V79 NR− line (T78-1); type: cell-based; conditions: read-out: V-79 NR− IC50
Description: (§1) The Chinese hamster fibroblast NR− line (T78-1) is a V79/4 Chinese hamster fibroblast transfected with an empty shuttle vector, while the NR+ line (T79-A3) is the corresponding NR transfectant. The human colon carcinoma NR− line (WIDR) is wild-type, while the NR+ line (WC14 10) is the corresponding NR transfectant. The human ovarian carcinoma NR− line (SKOV3) is wild-type, while the NR+ line (SC3.2) is the corresponding NR transfectant. EMT6 is a mouse mammary carcinoma line, and EN2A is the NR-transformed counterpart.

[2] = system: Chinese hamster fibroblast NR+ line (T79-A3), NR transfectant; assay: Cytotoxicity, 18 h drug exposure, V79 NR+ line (T79-A3); type: cell-based; conditions: for IC50: read-out: V-79 NR+ IC50; for V-79 ratio of IC50s: T78-1 vs T79-A3, inter-experiment average
Description: as §1

[3] = system: human colon carcinoma NR− line (WIDR), wild-type; assay: Cytotoxicity, 18 h drug exposure, WiDr NR− line; type: cell-based; conditions: read-out: WiDr NR− IC50
Description: as §1

[4] = system: human colon carcinoma NR+ line (WC14 10), NR transfectant; assay: Cytotoxicity, 18 h drug exposure, WiDr NR+ line (WC14 10); type: cell-based; conditions: for IC50: read-out: WiDr NR+ IC50; for WiDr ratio of IC50s: WIDR vs WC14 10, inter-experiment average
Description: as §1

[5] = system: human ovarian carcinoma NR− line (SKOV3), wild-type; assay: Cytotoxicity, 18 h drug exposure, SKOV3 NR− line; type: cell-based; conditions: read-out: SKOV NR− IC50
Description: as §1

[6] = system: human ovarian carcinoma NR+ line (SC3.2), NR transfectant; assay: Cytotoxicity, 18 h drug exposure, SKOV NR+ line (SC3.2); type: cell-based; conditions: for IC50: read-out: SKOV NR+ IC50; for SKOV ratio of IC50s: SKOV3 vs SC3.2, inter-experiment average
Description: as §1

[7] = system: EMT6 mouse mammary carcinoma line; assay: Cytotoxicity, 18 h drug exposure, EMT6 NR− line; type: cell-based; conditions: read-out: EMT6 NR− IC50
Description: as §1

[8] = system: EN2A, NR-transformed counterpart of EMT6; assay: Cytotoxicity, 18 h drug exposure, EMT6 NR+ line (EN2A); type: cell-based, mouse; conditions: for EMT6 ratio of IC50s: EMT6 vs EN2A, inter-experiment average; for IC50: read-out: EMT6 NR+ IC50
Description: as §1

[9] = Cricetulus griseus, T78-1 cells, 18 h drug exposure
[10] = Cricetulus griseus, Fibroblast, T79-A3 cells, 18 h drug exposure
[11] = Homo sapiens, WIDR cells, 18 h drug exposure
[12] = Homo sapiens, WiDr, WC14 10 cells, 18 h drug exposure
[13] = Homo sapiens, SK-OV-3, SKOV3 cells, 18 h drug exposure
[14] = Homo sapiens, SC3.2 cells, 18 h drug exposure
[15] = Mus musculus, EMT6 cells, 18 h drug exposure
[16] = Mus musculus, EMT6, EN2A cells, 18 h drug exposure
[17] = T78-1 cells, 18 h drug exposure
[18] = T79-A3 cells, 18 h drug exposure
[19] = WC14 10 cells, 18 h drug exposure
[20] = SKOV3 cells, 18 h drug exposure
[21] = SC3.2 cells, 18 h drug exposure
[22] = Cricetulus griseus, T78-1, 18 h
[23] = Cricetulus griseus, Fibroblast, 18 h

SMILES | IC50 [1, 9] [µM] | IC50 [2, 10] [µM] | V-79 ratio of IC50s [2] | IC50 [3, 11] [µM] | IC50 [4, 12] [µM] | WiDr ratio of IC50s [4] | IC50 [5, 13] [µM] | IC50 [6, 14] [µM] | SKOV ratio of IC50s [6] | EMT6 ratio of IC50s [8] | also measured
NC(=O)c1c([N+](=O)[O-])ccc(N2CC2)c1[N+](=O)[O-] [Compound 13, 3-(aziridin-1-yl)-2,6-dinitrobenzamide] | 437 | 135 | 3.8 | 312 | 58 | 5.9 | 584 | 66 | 9.5 | 10 | IC50 [7, 15]: 287 µM; IC50 [8, 16]: 27 µM
O=C(NCCN1CCOCC1)c1cc([N+](=O)[O-])cc([N+](=O)[O-])c1N1CC1 [Compound 18, 2-(aziridin-1-yl)-N-[2-(4-morpholino)ethyl]-3,5-dinitrobenzamide] | – | – | >68 | – | – | 32 | – | – | >72 | – | IC50 [1, 17]: > 500 µM; IC50 [2, 18]: 7.3 µM; IC50 ([3]; WIDR cells, 18 h drug exposure): 521 µM; IC50 [4, 19]: 18 µM; IC50 [5, 20]: > 500 µM; IC50 [6, 21]: 11 µM
O=C(NCCCCN1CCOCC1)c1cc(N2CC2)c([N+](=O)[O-])cc1[N+](=O)[O-] [Compound 6, N-[4-(4-morpholino)butyl]-5-(aziridin-1-yl)-2,4-dinitrobenzamide] | – | – | 1210 | – | – | 93 | – | – | 510 | – | IC50 [1, 17]: 237 µM; IC50 [2, 18]: 0.25 µM; IC50 ([3]; WIDR cells, 18 h drug exposure): 28 µM; IC50 [4, 19]: 0.31 µM; IC50 [5, 20]: 151 µM; IC50 [6, 21]: 0.3 µM
CS(=O)(=O)c1cc([N+](=O)[O-])c(C(N)=O)cc1N1CC1 [Compound 12, 5-(aziridin-1-yl)-4-(methylsulfonyl)-2-nitrobenzamide] | 419 | 40 | 12 | 224 | 22 | 10 | 393 | 22 | 19 | – | –
NC(=O)c1cc(N2CC2)ccc1[N+](=O)[O-] [Compound 11, 5-(aziridin-1-yl)-2-nitrobenzamide] | 121 | 81 | 1.5 | 126 | 89 | 1.4 | 129 | 102 | 1.4 | – | –
NC(=O)c1cc(N2CC2)c([N+](=O)[O-])cc1[N+](=O)[O-] [CB1954, 5-(aziridin-1-yl)-2,4-dinitrobenzamide, reference compound] | – | – | 1200 | – | – | 51 | – | – | 357 | 1100 | IC50 [1, 22]: 395 µM; IC50 [2, 23]: 0.3 µM; IC50 ([3]; Homo sapiens, WiDr, 18 h): 56 µM; IC50 ([4]; Homo sapiens, WiDr, 18 h): 1.2 µM; IC50 ([5]; Homo sapiens, SK-OV-3, 18 h): 182 µM; IC50 ([6]; Homo sapiens, 18 h): 0.58 µM; IC50 ([7]; Mus musculus, EMT6, 18 h): 90 µM; IC50 ([8]; Mus musculus, EMT6, 18 h): 0.08 µM
NC(=O)c1cc([N+](=O)[O-])c(Cl)cc1N1CC1 | – | – | – | – | – | – | – | – | – | – | melting point: 155 °C
CS(=O)(=O)c1cc([N+](=O)[O-])c(N2CC2)cc1C(=O)NCC(O)CO (centres unmarked) [Compound 10, 5-(aziridin-1-yl)-N-(2,3-dihydroxypropyl)-2-(methylsulfonyl)-4-nitrobenzamide] | 641 | 8.8 | 87 | 826 | 26 | 33 | 920 | 6.2 | 159 | 124 | IC50 [7, 15]: 454 µM; IC50 [8, 16]: 3.7 µM
CN(CCN1CCOCC1)C(=O)c1cc(N2CC2)c([N+](=O)[O-])cc1[N+](=O)[O-] [Compound 4, 5-(aziridin-1-yl)-N-methyl-N-[2-(4-morpholino)ethyl]-2,4-dinitrobenzamide] | – | – | 235 | – | – | 21 | – | – | 46 | – | IC50 [1, 17]: 364 µM; IC50 [2, 18]: 1.8 µM; IC50 ([3]; WIDR cells, 18 h drug exposure): 170 µM; IC50 [4, 19]: 8.1 µM; IC50 [5, 20]: 533 µM; IC50 [6, 21]: 13 µM
O=C(NCCN1CCOCC1)c1cc(N2CC2)c([N+](=O)[O-])cc1[N+](=O)[O-] [Compound 3, 5-(aziridin-1-yl)-N-[2-(4-morpholino)ethyl]-2,4-dinitrobenzamide] | – | – | 4160 | – | – | 183 | – | – | 1100 | 4505 | IC50 [1, 17]: 571 µM; IC50 [2, 18]: 0.15 µM; IC50 ([3]; WIDR cells, 18 h drug exposure): 131 µM; IC50 [4, 19]: 0.72 µM; IC50 [5, 20]: 494 µM; IC50 [6, 21]: 0.45 µM; IC50 ([7]; EMT6 cells, 18 h drug exposure): 229 µM; IC50 ([8]; EN2A cells, 18 h drug exposure): 0.061 µM
NC(=O)c1cc([N+](=O)[O-])cc([N+](=O)[O-])c1N1CC1 [Compound 14, 2-(aziridin-1-yl)-3,5-dinitrobenzamide] | 1080 | 1.2 | 864 | 1080 | 13 | 85 | 1700 | 6.1 | 280 | 626 | IC50 [7, 15]: 769 µM; IC50 [8, 16]: 1.3 µM
O=C(NCCn1ccnc1)c1cc(N2CC2)c([N+](=O)[O-])cc1[N+](=O)[O-] [Compound 7, 5-(aziridin-1-yl)-N-[2-(imidazol-1-yl)ethyl]-2,4-dinitrobenzamide] | 420 | 0.39 | 1170 | 47 | 1 | 48 | 61 | 0.58 | 104 | – | –
O=C(NCC(O)CO)c1cc(N2CC2)c([N+](=O)[O-])cc1[N+](=O)[O-] (centres unmarked) [Compound 2, N-(2,3-dihydroxypropyl)-5-(aziridin-1-yl)-2,4-dinitrobenzamide] | 210 | 0.71 | 381 | 147 | 3.7 | 49 | 170 | 2.3 | 84 | 86 | IC50 [7, 15]: 90 µM; IC50 [8, 16]: 1.1 µM
O=C(NCC(O)CO)c1cc([N+](=O)[O-])cc([N+](=O)[O-])c1N1CC1 (centres unmarked) [Compound 17, 2-(aziridin-1-yl)-N-(2,3-dihydroxypropyl)-3,5-dinitrobenzamide] | 1440 | 6 | 208 | 878 | 12 | 71 | 1300 | 7.3 | 184 | – | –
NC(=O)c1ccc(Cl)c([N+](=O)[O-])c1N1CC1 | – | – | – | – | – | – | – | – | – | – | melting point: 216 °C
NC(=O)c1ccc([N+](=O)[O-])c(N2CC2)c1 [Compound 9, 3-(aziridin-1-yl)-4-nitrobenzamide] | 108 | 62 | 1.4 | 102 | 62 | 1.6 | 93 | 61 | 1.6 | – | –
COC(=O)CCNC(=O)c1cc(N2CC2)c([N+](=O)[O-])cc1[N+](=O)[O-] [Compound 8, 5-(aziridin-1-yl)-N-[2-(methoxycarbonyl)ethyl]-2,4-dinitrobenzamide] | – | – | 1580 | – | – | 51 | – | – | 270 | – | IC50 [1, 22]: 581 µM; IC50 [2, 23]: 0.4 µM; IC50 ([3]; Homo sapiens, WiDr, 18 h): 124 µM; IC50 ([4]; Homo sapiens, WiDr, 18 h): 2.3 µM; IC50 ([5]; Homo sapiens, SK-OV-3, 18 h): 677 µM; IC50 ([6]; Homo sapiens, 18 h): 2.5 µM
O=C(NCCCN1CCOCC1)c1cc(N2CC2)c([N+](=O)[O-])cc1[N+](=O)[O-] [Compound 5, 5-(aziridin-1-yl)-N-[3-(4-morpholino)propyl]-2,4-dinitrobenzamide] | – | – | 6210 | – | – | 120 | – | – | 730 | – | IC50 [1, 17]: 255 µM; IC50 [2, 18]: 0.048 µM; IC50 ([3]; WIDR cells, 18 h drug exposure): 30 µM; IC50 [4, 19]: 0.23 µM; IC50 [5, 20]: 122 µM; IC50 [6, 21]: 0.15 µM
